Experimental data from ChEMBL document CHEMBL4376803, “Recent Advances in the Exploration of Therapeutic Analogues of Gramicidin S, an Old but Still Potent Antimicrobial Peptide” (J Med Chem, 2019).
Converted amounts (≈) assume the structure as drawn. Square brackets hold non-standard residues; d marks the D form. Peptide text beside a SMILES is read from it.

Assays:
[1] = Therapeutic index, ratio of HD100 for hemolytic activity in human erythrocytes to MIC against Escherichia coli; type: toxicity, cell-based; details: read-out: TI
[2] = Therapeutic index, ratio of HD100 for hemolytic activity in human RBC to MIC against Staphylococcus aureus; type: toxicity; details: human red blood cells, read-out: TI
Escherichia coli = assay: Antibacterial activity against Escherichia coli after 24 hrs by microtitre dilution method; type: functional
Enterococcus faecalis = assay: Antibacterial activity against Enterococcus faecalis after 24 hrs by microtitre dilution method; type: functional
[3] = Therapeutic index, ratio of HD100 for hemolytic activity in human RBC to MIC against Enterococcus faecalis; type: toxicity; details: human red blood cells, read-out: TI
Candida albicans = assay: Antibacterial activity against Candida albicans after 24 hrs by microtitre dilution method; type: functional
Pseudomonas aeruginosa = assay: Antibacterial activity against Pseudomonas aeruginosa after 24 hrs by microtitre dilution method; type: functional
Staphylococcus aureus = assay: Antibacterial activity against Staphylococcus aureus after 24 hrs by microtitre dilution method; type: functional
[4] = Therapeutic index, ratio of HD100 for hemolytic activity in human erythrocytes to MIC against Pseudomonas aeruginosa; type: toxicity, cell-based; details: read-out: TI

MIC (Escherichia coli): 4 µg/mL (≈ 2.08 µM)
MIC (Enterococcus faecalis): 4 µg/mL (≈ 2.08 µM)
MIC (Candida albicans): 16 µg/mL (≈ 8.31 µM)
MIC (Pseudomonas aeruginosa): 64 µg/mL (≈ 33.2 µM)
MIC (Staphylococcus aureus): 8 µg/mL (≈ 4.15 µM)
Structure (SMILES): CC(C)C[C@@H]1NC(=O)[C@H](CCCCN)NC(=O)[C@H](C(C)C)NC(=O)[C@@H]2CCCN2C(=O)[C@@H](Cc2ccc(O)cc2)NC(=O)[C@H](CC(C)C)NC(=O)[C@H](CCCCN)NC(=O)[C@H](C(C)C)NC(=O)[C@H](CCCCN)NC(=O)[C@H](CC(C)C)NC(=O)[C@H](CCCCN)NC(=O)[C@@H]2CCCN2C(=O)[C@@H](Cc2ccc(O)cc2)NC(=O)[C@H](CCCCN)NC(=O)[C@H](C(C)C)NC(=O)[C@H](CCCCN)NC1=O (cyclo(VKLKVK[dY]PKLKVKL[dY]P))
selectivity ratio [1]: > 50
selectivity ratio [2]: > 25
selectivity ratio [3]: > 50
selectivity ratio [4]: > 3.1
